In test [1] the test system is Actinomyces viscosus DSM 43327.
Test [2] relates to Bifidobacterium breve ATCC 15700.
The subject of test [3] is Proteus mirabilis DSM 30116.
The subject of test [4] is Clostridium perfringens NCTC 8237.
The subject of test [5] is Clostridium difficile ATCC 43255. The experiment in a line: CLSI MIC, representative gut bacteria. Type of test: cell-based. As for the experimental part:
(§1) Comparative in vitro bacterial susceptibility to compounds 3, 9 and 10, vancomycin and metronidazole was determined using methods according to the Clinical and Laboratory Standard Institute (CLSI) approved guidelines (M7-A10, M11-A7 or M45-A2) for anaerobic and aerobic organisms.

In test [6] the test system is Clostridium sordellii ATCC 9714. In words: CLSI MIC, representative gut bacteria. In kind it is cell-based. As for the experimental part: as §1

Molecules are shown by their SMILES. In brackets after ≈: the same amount, converted by molar mass. *1 amine or outer side, *2 acyl side, *3 side chain or, on linkers, in order; H or OH if unused. Where a SMILES comes first, the peptide text is derived from it. [ ]: non-standard residue; d: D form. dAla(ψthiazole) = C[C@@H](N[*:1])c1nc(C(=O)[*:2])cs1; Trp(4-Br) = N[C@@H](Cc1c[nH]c2cccc(Br)c12)C(=O)O; Dhb = C/C=C(\N)C(=O)O; Sar = CNCC(=O)O

The term MIC denotes the lowest concentration found to suppress growth. High values mean a less susceptible organism, low ones a more susceptible organism. Take `C/C=C1\NC(=O)[C@@H](C)NC(=O)CNC(=O)[C@H](Cc2c[nH]c3cccc(Br)c23)NC(=O)[C@H](Cc2c[nH]c3ccccc23)NC(=O)c2csc(n2)[C@@H](C)NC(=O)CN(C)C1=O` [Compound 10, Cyclo[D-Ala-Thz-Trp-Trp(4-Br)-Gly-D-Ala-Dhb-Sar]] (cyclo([Dhb][Sar][dAla(ψthiazole)]W[Trp(4-Br)]G[dA])): the MIC in test [1] was 8 µg/mL (≈ 9.01 µM); in test [2], above 64 µg/mL; in test [3], above 64 µg/mL; in test [4], 64 µg/mL (≈ 72.1 µM); in test [5] (Clostridium difficile ATCC 43255) it was 0.25 µg/mL (≈ 0.282 µM); in test [6], 1.0 µg/mL (≈ 1.13 µM). For the same compound, the “fold more potent against C. difficile ATCC 43255 compared to Bacteroides fragilis” value in test [5] is “at least 256 fold”.

Source of the values: patent publication US11192888B2, “Antibacterial compounds” (priority 2017, dated 2021).
